Measured values taken from PubChem BioAssay AID2060336 (Molecular Pharmacology Branch, DTP, NCI, 2025).

Test system: 958767-090-R-J1-PDC spheroid growth
Assay: Anticancer human tumor 958767-090-R-J1-PDC patient-derived head and neck squamous carcinoma cell line growth inhibition [IpAb]
Conditions: spheroids with HUVEC and MSC; for IC50: curve of first compound; for viability, T/C: stronger effect = lower value
Description: Combinatorial screen of targeted agents with ipatasertib and abemaciclib in multi-cell type tumor spheroids
A high-throughput screen of multi-cell type tumor spheroids was designed to identify active combinations of targeted small molecules and ipatasertib or abemaciclib. Complex spheroids include a stromal component modeled by human endothelial cells (HUVEC) and fibroblasts modeled by human mesenchymal stem cells (MSCs). The concentration ranges selected for each drug and investigational agent were based upon clinically achievable concentrations if the clinical Cmax of the agent was known.
Compounds. The drugs and investigational agents: ipatasertib (NSC767898), abemaciclib(NSC768073), selumetinib (NSC741078), trametinib (758246), adavosertib (NSC754352), everolimus (NSC733504), sapanisertib (NSC764658), vemurafenib (NSC761431), venetoclax (NSC766270), copanlisib (NSC809693), apelisib (NSC765974), palbociblib (NSC758247), vemurafenib (NSC761431), dabrafenib (NSC764134), ravoxertinib (NSC781343), BMS-387032 (NSC767048), sotorasib (NSC818433), talazoparib (NSC767125) and afursertib (NSC778305), were obtained from the National Cancer Institute (NCI) Developmental Therapeutics Program Chemical Repository. The FDA-approved anticancer drug set is available from the NCI Developmental Therapeutics Program. […] The stock solutions were prepared in dimethyl sulfoxide (DMSO, Sigma-Aldrich, St. Louis, MO, cat. D2650) at 800-fold the tested concentration and stored at -70 degrees C prior to their use. All drugs and investigational agents were tested over a range starting from a high concentration at or near the clinical Cmax and decreasing in half-log increments. If the clinical Cmax for an agent had not been determined, the highest concentration tested was 10 microM.
NCI60 Cell Culture. NCI60 cell lines were obtained from the NCI Developmental Therapeutics Program Tumor Repository. For each lot of cells, the Repository performed Applied Biosystems AmpFLSTR Identifiler testing with PCR amplification to confirm consistency with the published Identifier STR profile for each cell line. Cells were kept in continuous culture for no more than 20 passages. The optimal seeding densities for each of the cell lines at each time point assessed were determined prior to performing the concentration response studies. Briefly, the NCI60 human tumor lines were grown as monolayers in RPMI 1640 medium supplemented with 10% FBS and 2 mmol/L L-glutamine.
An additional 9 lines were from the NCI60 cell line panel including MDA-MB-231 breast carcinoma, MDA-MB-468 breast carcinoma, MCF7 breast carcinoma, Hs578T breast carcinoma, MALME-3M melanoma, SK-MEL-2 melanoma, SK-OV-3 ovarian carcinoma, DU-145 prostate carcinoma, PC-3 prostate carcinoma, all cell lines along with major genetic alterations are listed on Table 2. Pooled donor human umbilical vein endothelial cells (HUVEC, Lonza, cat. CC-2519) and human mesenchymal stem cells (hMSC, Lonza, cat. PT-2501) were purchased from Lonza (Walkersville, MD).
PDMR cell lines were grown in complete medium (DC medium): Dulbecco's modified Eagle's medium (DMEM)/F12 supplemented with 5% fetal bovine serum (FBS), 2 mM L-glutamine, 100 U/mL penicillin and 100 µg/ml streptomycin, 0.4 µg/ml hydrocortisone, 10 ng/ml epidermal growth factor (EGF) recombinant human protein, 24 µg/mL adenine, and 0.1 mg/mL primocin. During culture from frozen stock vials, PDMR cells were cultured in the same medium containing 10 µM Y-27632 (see Table 3). The PDCs were cultured in complete DMEM/F12 media without 10 microM Y-27632 dihydrochloride for at least two passages prior to the screen. The pooled donor HUVEC and hMSC were cultured in endothelial cell growth medium 2 (PromoCell, Heidelberg, Germany, cat. C-22011) and mesenchymal stem cell growth medium 2 (PromoCell, cat. C-28009), respectively. For all experiments, HUVEC and hMSC were used at passages </=5.
[…]

[1] = second compound 0.01 µM, first compound 0.00949 µM
[2] = second compound 0.01 µM, first compound 0.03 µM
[3] = second compound 0.01 µM, first compound 0.0949 µM
[4] = second compound 0.01 µM, first compound 0.3 µM
[5] = second compound 0.01 µM, first compound 0.949 µM
[6] = second compound 0.01 µM, first compound 3 µM
[7] = second compound 0.0316 µM, first compound 0.00949 µM
[8] = second compound 0.0316 µM, first compound 0.03 µM
[9] = second compound 0.0316 µM, first compound 0.0949 µM
[10] = second compound 0.0316 µM, first compound 0.3 µM
[11] = second compound 0.0316 µM, first compound 0.949 µM
[12] = second compound 0.0316 µM, first compound 3 µM
[13] = second compound 0.1 µM, first compound 0.00949 µM
[14] = second compound 0.1 µM, first compound 0.03 µM
[15] = second compound 0.1 µM, first compound 0.0949 µM
[16] = second compound 0.1 µM, first compound 0.3 µM
[17] = second compound 0.1 µM, first compound 0.949 µM
[18] = second compound 0.1 µM, first compound 3 µM
[19] = second compound 0.316 µM, first compound 0.00949 µM
[20] = second compound 0.316 µM, first compound 0.03 µM
[21] = second compound 0.316 µM, first compound 0.0949 µM
[22] = second compound 0.316 µM, first compound 0.3 µM
[23] = second compound 0.316 µM, first compound 0.949 µM
[24] = second compound 0.316 µM, first compound 3 µM
[25] = second compound 1 µM, first compound 0.00949 µM
[26] = second compound 1 µM, first compound 0.03 µM
[27] = second compound 1 µM, first compound 0.0949 µM
[28] = second compound 1 µM, first compound 0.3 µM
[29] = second compound 1 µM, first compound 0.949 µM
[30] = second compound 1 µM, first compound 3 µM
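Also: spheroids exposed to agents for 7 days.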
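For viability, T/C in this document: 100% = DMSO vehicle control wells.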

## CC(C)(C)c1cnc(CSc2cnc(NC(=O)C3CCNCC3)s2)o1 + CCN1CCN(Cc2ccc(Nc3ncc(F)c(-c4cc(F)c5nc(C)n(C(C)C)c5c4)n3)nc2)CC1
Second compound 0.01 µM
  IC50: 144 nM
Second compound 0.0316 µM
  IC50: 134 nM
Second compound 0.1 µM
  IC50: 93.6 nM
Second compound 0.316 µM
  IC50: 42.9 nM
Second compound 1 µM
  IC50: 48.1 nM
[1]
  viability, T/C: 106%
[2]
  viability, T/C: 97.6%
[3]
  viability, T/C: 76.5%
[4]
  viability, T/C: 2.6%
[5]
  viability, T/C: 2.82%
[6]
  viability, T/C: 2.81%
[7]
  viability, T/C: 98.5%
[8]
  viability, T/C: 84.2%
[9]
  viability, T/C: 70.5%
[10]
  viability, T/C: 1.81%
[11]
  viability, T/C: 2.35%
[12]
  viability, T/C: 1.86%
[13]
  viability, T/C: 76.2%
[14]
  viability, T/C: 63.3%
[15]
  viability, T/C: 50.1%
[16]
  viability, T/C: 2.58%
[17]
  viability, T/C: 1.95%
[18]
  viability, T/C: 2.75%
[19]
  viability, T/C: 71.2%
[20]
  viability, T/C: 59.6%
[21]
  viability, T/C: 27.2%
[22]
  viability, T/C: 1.79%
[23]
  viability, T/C: 3.55%
[24]
  viability, T/C: 3.21%
[25]
  viability, T/C: 91.7%
[26]
  viability, T/C: 78.2%
[27]
  viability, T/C: 9.34%
[28]
  viability, T/C: 3.35%
[29]
  viability, T/C: 3.92%
[30]
  viability, T/C: 2.96%

## Cn1cnc2c(F)c(Nc3ccc(Br)cc3Cl)c(C(=O)NOCCO)cc21 + CCN1CCN(Cc2ccc(Nc3ncc(F)c(-c4cc(F)c5nc(C)n(C(C)C)c5c4)n3)nc2)CC1
Second compound 0.01 µM
  IC50: 29.3 nM
Second compound 0.0316 µM
  IC50: 27 nM
Second compound 0.1 µM
  IC50: 12.6 nM
Second compound 0.316 µM
  IC50: 9.64 nM
Second compound 1 µM
  IC50: 124 nM
[1]
  viability, T/C: 71%
[2]
  viability, T/C: 49.4%
[3]
  viability, T/C: 35.2%
[4]
  viability, T/C: 34.5%
[5]
  viability, T/C: 30%
[6]
  viability, T/C: 23.2%
[7]
  viability, T/C: 65%
[8]
  viability, T/C: 47.7%
[9]
  viability, T/C: 36.9%
[10]
  viability, T/C: 29.7%
[11]
  viability, T/C: 29.3%
[12]
  viability, T/C: 19.7%
[13]
  viability, T/C: 53.1%
[14]
  viability, T/C: 41.9%
[15]
  viability, T/C: 34.9%
[16]
  viability, T/C: 34.1%
[17]
  viability, T/C: 26.7%
[18]
  viability, T/C: 23.5%
[19]
  viability, T/C: 51.9%
[20]
  viability, T/C: 41.9%
[21]
  viability, T/C: 40.1%
[22]
  viability, T/C: 36.1%
[23]
  viability, T/C: 28%
[24]
  viability, T/C: 21.2%
[25]
  viability, T/C: 69.3%
[26]
  viability, T/C: 67.2%
[27]
  viability, T/C: 51.9%
[28]
  viability, T/C: 42.8%
[29]
  viability, T/C: 44.5%
[30]
  viability, T/C: 37%
